Laboratory results taken from patent US12336991B2, “Factor XIIA inhibitors” (UNIVERSITY OF LEEDS, priority 2018, dated 2025).

Legend:
Assay type in all cases: biochemical
[1] = target: T1, thrombin (Homo sapiens, UniProt P00734); test: Determination of selectivity: thrombin inhibition, chromogenic substrate GPR assay; settings: fold selectivity for FXIIa over thrombin
T1 construct: FXa (5 nM) and thrombin (5 nM)
How it was run: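 Thrombin (5 nM) preincubated with compound 10 min at 37 °C in 50 mM Tris, 137 mM NaCl, pH 7.4, 5% DMSO, then GPR substrate ([…]) added. Absorbance at 405 nm read kinetically for 3 h; IC50 from initial rates, converted to Ki via Ki=IC50/(1+[S]/Km).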

[2] = target: FXa (Homo sapiens, UniProt P00742); test: Determination of selectivity: FXa inhibition, chromogenic substrate S2765 assay; settings: fold selectivity for FXIIa over FXa
How it was run: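 Human FXa (5 nM) preincubated with compound (top 500 μM, 5% DMSO) 10 min at 37 °C in 50 mM Tris, 137 mM NaCl pH 7.4, then S2765 ([…]) added; A405 kinetics over 3 h at 37 °C. IC50 from initial rates, converted to Ki via Cheng-Prusoff.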

[3] = target: T2, FXIIa (Homo sapiens, UniProt P00748); test: Determination of Factor XIIa inhibition, chromogenic substrate S-2302 assay; settings: human FXIIa alpha
T2 sequence (P00748 373-615 limits assumed): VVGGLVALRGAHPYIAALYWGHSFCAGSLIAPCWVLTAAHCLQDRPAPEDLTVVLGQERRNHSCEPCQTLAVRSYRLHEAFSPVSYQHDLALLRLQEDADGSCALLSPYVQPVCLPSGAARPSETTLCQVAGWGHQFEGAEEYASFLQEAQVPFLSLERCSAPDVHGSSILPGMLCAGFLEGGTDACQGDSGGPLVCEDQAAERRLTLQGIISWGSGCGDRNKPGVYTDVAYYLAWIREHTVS
T2 sequence (P00748 20-372 partner limits assumed): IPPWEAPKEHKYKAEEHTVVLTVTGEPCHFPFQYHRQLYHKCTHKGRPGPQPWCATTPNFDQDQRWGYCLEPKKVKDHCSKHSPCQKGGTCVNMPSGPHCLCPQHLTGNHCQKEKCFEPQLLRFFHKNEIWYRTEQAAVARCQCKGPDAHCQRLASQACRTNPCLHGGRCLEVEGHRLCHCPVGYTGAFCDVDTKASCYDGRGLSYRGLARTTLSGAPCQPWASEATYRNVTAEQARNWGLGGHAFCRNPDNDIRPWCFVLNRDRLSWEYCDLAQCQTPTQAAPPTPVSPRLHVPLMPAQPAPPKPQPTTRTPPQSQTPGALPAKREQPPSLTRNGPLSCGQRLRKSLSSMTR
How it was run: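 FXIIa (10 nM) preincubated with compound 10 min at 37° C. in 50 mM Tris, 137 mM NaCl pH 7.4, 5% DMSO, top concentration 500 μM, then S-2302 added ([…]). Absorbance at 405 nm read kinetically for 3 h; IC50 from initial rates, converted to Ki by Cheng-Prusoff.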

FXa, sequence (P00742 235-488 limits assumed): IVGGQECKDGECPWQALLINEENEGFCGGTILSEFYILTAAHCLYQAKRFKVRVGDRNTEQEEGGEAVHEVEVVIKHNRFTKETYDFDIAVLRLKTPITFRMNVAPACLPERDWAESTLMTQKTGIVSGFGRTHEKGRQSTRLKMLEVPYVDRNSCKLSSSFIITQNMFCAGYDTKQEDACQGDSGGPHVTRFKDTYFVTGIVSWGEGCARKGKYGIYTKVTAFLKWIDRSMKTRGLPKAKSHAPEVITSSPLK
FXa, sequence (P00742 41-179 partner limits assumed): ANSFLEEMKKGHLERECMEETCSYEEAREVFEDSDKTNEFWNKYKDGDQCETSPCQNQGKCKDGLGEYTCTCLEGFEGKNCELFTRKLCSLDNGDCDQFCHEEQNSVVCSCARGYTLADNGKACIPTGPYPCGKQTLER

COc1ccc(C[C@@H]2C[C@@H](C(=O)NCc3ccc4c(c3)nnn4C)N(C(=O)[C@H]3C[C@@H](n4ccccc4=O)CN3)C2)cc1 [Example M00958]
Thrombin (human)/FXIIa alpha (human) [1]: +++ (fold selectivity values greater than 100) | FXa (human)/FXIIa alpha (human) [2]: ∘∘∘ | Ki [3]: 0.2 to 2 µM

COc1ccc(C[C@@H]2C[C@@H](C(=O)NCc3ccc4c(c3)nnn4C)N(C(=O)[C@H](N)CCC(=O)N3CCC[C@H]3C(C)C)C2)cc1 [Example M05407]
Thrombin (human)/FXIIa alpha (human) [1]: +++ (fold selectivity values greater than 100) | FXa (human)/FXIIa alpha (human) [2]: ∘∘∘ | Ki [3]: < 0.2 µM

Cn1nnc2cc(CNC(=O)[C@@H]3C[C@@H](Cc4ccccc4F)CN3C(=O)[C@H]3C[C@@H](c4ccccc4)CN3)ccc21 [Example M05332]
Thrombin (human)/FXIIa alpha (human) [1]: ++ (fold selectivity value of 10 to 100) | FXa (human)/FXIIa alpha (human) [2]: ∘∘ | Ki [3]: > 2 µM

CC(=O)N(Cc1ccccc1)[C@H]1C[C@@H](C(=O)NCc2ccc3c(c2)nnn3C)N(C(=O)[C@H](N)CCc2ccccc2)C1 [Example M05161]
Thrombin (human)/FXIIa alpha (human) [1]: ++ (fold selectivity value of 10 to 100) | FXa (human)/FXIIa alpha (human) [2]: ∘∘ | Ki [3]: > 2 µM

COc1ccc(C[C@@H]2C[C@@H](C(=O)NCc3ccc4c(c3)nnn4C)N(C(=O)[C@H](N)CCC(=O)N3CCNCC3)C2)cc1 [Example M05393]
Thrombin (human)/FXIIa alpha (human) [1]: +++ (fold selectivity values greater than 100) | FXa (human)/FXIIa alpha (human) [2]: ∘∘∘ | Ki [3]: 0.2 to 2 µM

COc1cc(CNC(=O)[C@@H]2C[C@H](c3ccccc3)CN2C(=O)[C@H](N)CCc2ccccc2)ccc1CN [Example M05068]
Thrombin (human)/FXIIa alpha (human) [1]: ++ (fold selectivity value of 10 to 100) | FXa (human)/FXIIa alpha (human) [2]: ∘∘∘ | Ki [3]: 0.2 to 2 µM

Cn1nnc2cc(CNC(=O)[C@@H]3C[C@@](O)(c4ccccc4)CN3C(=O)[C@H](N)CCc3ccccc3)ccc21 [Example M05126]
Thrombin (human)/FXIIa alpha (human) [1]: ++ (fold selectivity value of 10 to 100) | FXa (human)/FXIIa alpha (human) [2]: ∘∘ | Ki [3]: > 2 µM

CN(C)[C@H](CCC(=O)N1CCCC1)C(=O)N1C[C@H](Cc2cccnc2)C[C@H]1C(=O)NCc1ccc2c(cnn2C)c1 [Example M05223]
Thrombin (human)/FXIIa alpha (human) [1]: +++ (fold selectivity values greater than 100) | FXa (human)/FXIIa alpha (human) [2]: ∘∘∘ | Ki [3]: 0.2 to 2 µM

Cn1nc(Cl)c2cc(CNC(=O)[C@@H]3C[C@@H](Cc4cccnc4)CN3C(=O)[C@H](N)CCC(=O)N3CCCC3)ccc21 [Example M05224]
Thrombin (human)/FXIIa alpha (human) [1]: +++ (fold selectivity values greater than 100) | FXa (human)/FXIIa alpha (human) [2]: ∘∘∘ | Ki [3]: < 0.2 µM

CC(=O)N(Cc1cccnc1)[C@H]1C[C@@H](C(=O)NCc2ccc3c(c2)nnn3C)N(C(=O)[C@H](N)CCc2ccccc2)C1 [Example M05162]
Thrombin (human)/FXIIa alpha (human) [1]: ++ (fold selectivity value of 10 to 100) | FXa (human)/FXIIa alpha (human) [2]: ∘∘ | Ki [3]: > 2 µM

COc1ccc(C[C@@H]2C[C@@H](C(=O)NCc3cc4ccncc4[nH]3)N(C(=O)[C@H]3C[C@@H](c4ccccc4)CN3)C2)cc1 [Example M00953]
Thrombin (human)/FXIIa alpha (human) [1]: ++ (fold selectivity value of 10 to 100) | FXa (human)/FXIIa alpha (human) [2]: ∘∘∘ | Ki [3]: < 0.2 µM

Cn1nnc2cc(CNC(=O)[C@@H]3C[C@H](NCc4ccc(Cl)cc4)CN3C(=O)[C@H](N)CCc3ccccc3)ccc21 [Example M05160]
Thrombin (human)/FXIIa alpha (human) [1]: ++ (fold selectivity value of 10 to 100) | FXa (human)/FXIIa alpha (human) [2]: ∘∘ | Ki [3]: > 2 µM

COc1ccc(C[C@@H]2C[C@@H](C(=O)NCc3ccc4c(c3)nnn4C)N(C(=O)[C@H]3CC(c4ccc(F)cc4)CN3)C2)cc1 (stereo partly drawn) [Example M05340]
Thrombin (human)/FXIIa alpha (human) [1]: ++ (fold selectivity value of 10 to 100) | FXa (human)/FXIIa alpha (human) [2]: ∘∘ | Ki [3]: 0.2 to 2 µM

COc1ccc2c(c1)CCNC2C(=O)N1C[C@H](Cc2ccncc2)C[C@H]1C(=O)NCc1ccc2c(c1)nnn2C (stereo partly drawn) [Example M05463]
Thrombin (human)/FXIIa alpha (human) [1]: ++ (fold selectivity value of 10 to 100) | FXa (human)/FXIIa alpha (human) [2]: ∘∘ | Ki [3]: > 2 µM

O=C(NCc1cc2cnccc2[nH]1)[C@@H]1C[C@@H](Cc2ccc(C(F)(F)F)cc2)CN1C(=O)C1NCCc2cc(Cl)ccc21 (stereo partly drawn) [Example M00970]
Thrombin (human)/FXIIa alpha (human) [1]: ++ (fold selectivity value of 10 to 100) | FXa (human)/FXIIa alpha (human) [2]: ∘∘∘ | Ki [3]: 0.2 to 2 µM

Cn1ncc2cc(CNC(=O)[C@@H]3C[C@@H](c4ccccc4)CN3C(=O)[C@H](N)CCc3ccccc3)ccc21 [Example M05188]
Thrombin (human)/FXIIa alpha (human) [1]: ++ (fold selectivity value of 10 to 100) | FXa (human)/FXIIa alpha (human) [2]: ∘∘ | Ki [3]: > 2 µM

Cn1nnc2cc(CNC(=O)[C@@H]3C[C@@H](Cc4ccc(S(C)(=O)=O)cc4)CN3C(=O)[C@H]3C[C@@H](c4ccccc4)CN3)ccc21 [Example M05372]
Thrombin (human)/FXIIa alpha (human) [1]: ++ (fold selectivity value of 10 to 100) | FXa (human)/FXIIa alpha (human) [2]: ∘∘∘ | Ki [3]: 0.2 to 2 µM

COc1ccc(C[C@@H]2C[C@@H](C(=O)NCc3ccc4c(c3)nnn4C)N(C(=O)[C@H]3CC(c4cccnc4C(F)(F)F)CN3)C2)cc1 (stereo partly drawn) [Example M05421]
Thrombin (human)/FXIIa alpha (human) [1]: +++ (fold selectivity values greater than 100) | FXa (human)/FXIIa alpha (human) [2]: ∘∘∘ | Ki [3]: 0.2 to 2 µM

COc1ccc(C[C@@H]2C[C@@H](C(=O)NCc3cc4cnccc4[nH]3)N(C(=O)C3NCCc4cc(Cl)ccc43)C2)cc1 (stereo partly drawn) [Example M00965]
Thrombin (human)/FXIIa alpha (human) [1]: +++ (fold selectivity values greater than 100) | FXa (human)/FXIIa alpha (human) [2]: ∘∘∘ | Ki [3]: < 0.2 µM

Nc1cc(CNC(=O)[C@@H]2C[C@@](O)(c3ccc(F)c(F)c3)CN2C(=O)[C@H](N)CCc2ccccc2)ccn1 [Example M05127]
Thrombin (human)/FXIIa alpha (human) [1]: ++ (fold selectivity value of 10 to 100) | FXa (human)/FXIIa alpha (human) [2]: ∘∘ | Ki [3]: 0.2 to 2 µM

COc1ccc(C[C@@H]2C[C@@H](C(=O)NCc3ccc4c(c3)nnn4C)N(C(=O)[C@H](N)CCC(=O)N3CCCC3C)C2)cc1 (stereo partly drawn) [Example M05391]
Thrombin (human)/FXIIa alpha (human) [1]: +++ (fold selectivity values greater than 100) | FXa (human)/FXIIa alpha (human) [2]: ∘∘∘ | Ki [3]: < 0.2 µM

COc1ccc(C[C@@H]2C[C@@H](C(=O)NCc3ccc4c(c3)nnn4C)N(C(=O)[C@H](N)CCC(=O)N3CCC[C@@H]3C#N)C2)cc1 [Example M05458]
Thrombin (human)/FXIIa alpha (human) [1]: +++ (fold selectivity values greater than 100) | FXa (human)/FXIIa alpha (human) [2]: ∘∘∘ | Ki [3]: < 0.2 µM

COc1ccc(C[C@@H]2C[C@@H](C(=O)NCc3ccc4c(c3)nnn4C)N(C(=O)[C@H]3CC(c4ccccc4C)CN3)C2)cc1 (stereo partly drawn) [Example M05365]
Thrombin (human)/FXIIa alpha (human) [1]: +++ (fold selectivity values greater than 100) | FXa (human)/FXIIa alpha (human) [2]: ∘∘∘ | Ki [3]: 0.2 to 2 µM

Cn1ccnc1CC1C[C@@H](C(=O)NCc2ccc3c(c2)nnn3C)N(C(=O)[C@H](N)CCC(=O)N2CCCC2)C1 (stereo partly drawn) [Example M05297]
Thrombin (human)/FXIIa alpha (human) [1]: +++ (fold selectivity values greater than 100) | FXa (human)/FXIIa alpha (human) [2]: ∘∘∘ | Ki [3]: 0.2 to 2 µM

COc1ccc(C[C@@H]2C[C@@H](C(=O)NCc3ccc4c(c3)nnn4C)N(C(=O)[C@H]3CC(c4ccnn4C)CN3)C2)cc1 (stereo partly drawn) [Example M05376]
Thrombin (human)/FXIIa alpha (human) [1]: ++ (fold selectivity value of 10 to 100) | FXa (human)/FXIIa alpha (human) [2]: ∘∘ | Ki [3]: > 2 µM

N[C@H](CCC(=O)N1CCCC1)C(=O)N1C[C@H](Cc2ccc(C(F)(F)F)cc2)C[C@H]1C(=O)NCc1cc2cnccc2[nH]1 [Example M00969]
Thrombin (human)/FXIIa alpha (human) [1]: +++ (fold selectivity values greater than 100) | FXa (human)/FXIIa alpha (human) [2]: ∘∘∘ | Ki [3]: < 0.2 µM

Cn1nnc2cc(CNC(=O)[C@@H]3C[C@@H](Cc4ccc(F)cc4F)CN3C(=O)[C@H]3C[C@@H](c4ccccc4)CN3)ccc21 [Example M05361]
Thrombin (human)/FXIIa alpha (human) [1]: ++ (fold selectivity value of 10 to 100) | FXa (human)/FXIIa alpha (human) [2]: ∘∘ | Ki [3]: 0.2 to 2 µM

Cn1nnc2cc(CNC(=O)[C@@H]3C[C@@H](Cc4cccc(-c5ccncc5)c4)CN3C(=O)[C@H](N)CCC(=O)N3CCCC3)ccc21 [Example M05323]
Thrombin (human)/FXIIa alpha (human) [1]: +++ (fold selectivity values greater than 100) | FXa (human)/FXIIa alpha (human) [2]: ∘∘∘ | Ki [3]: < 0.2 µM

Cn1nnc2cc(CNC(=O)[C@@H]3C[C@H](NC(=O)Cc4ccccc4)CN3C(=O)[C@H](N)CCc3ccccc3)ccc21 [Example M05216]
Thrombin (human)/FXIIa alpha (human) [1]: ++ (fold selectivity value of 10 to 100) | FXa (human)/FXIIa alpha (human) [2]: ∘∘ | Ki [3]: > 2 µM
